Data taken from patent US11660285B2, “Triptolide acrylate, preparation method therefor and use thereof” (GUANGDONG PROVINCIAL HOSPITAL OF TCM, priority 2019, dated 2023).

Legend:
[1] = tested on: BEL-7402 liver cancer cells; test: Cell apoptosis by flow cytometry, BEL-7402; type: cell-based; conditions: BEL-7402, 0, 50 and 100 nM, 24 h, FIG. 10 A
Experimental: (§1) 2.3 Detection of Cell Apoptosis by Flow Cytometry
(§2) Liver cancer cells in the logarithmic growth phase were taken and inoculated in a 12-well plate at 5×10^5 cells per well. The cells treated with triptolide acrylate (hereinafter referred to as TPO) and triptolide triol (hereinafter referred to as TP-3-OH) with final concentrations of 0, 50 and 100 nM were used. After 24 h of treatment, the cells were digested and collected with 0.25% EDTA-free pancreatin, washed twice with pre-cooled PBS, and resuspended with 300 μL 1× Binding Buffer. 5 μL FITC Annexin V and 5 μL PI were added to each tube of cell suspension and incubated at a room temperature for 5 min in the dark, and the flow cytometry was used for detection within 1 h.

[2] = tested on: BEL-7402 liver cancer cells; test: Cell proliferation by MTT method, BEL-7402; type: cell-based; conditions: BEL-7402, 10, 25, 50, 100 nM, 24 h, FIG. 9
Experimental: (§3) 2.2 Detection of Cell Proliferation by MMT Method
(§4) When the liver cancer cells grew to the logarithmic phase, the single cell suspension was inoculated in a 96-well plate at 1×10^4 cells per well. A blank group was a DMEM medium containing 10% fetal bovine serum, a control group was a solvent-added control (DMSO) cell group, and an experimental group was a cell group treated with drugs with different final concentrations (10, 25, 50, 100 nM). After 24 h of treatment, the medium supernatant was carefully aspirated, and 100 μL of MTT solution with a final concentration of […] diluted with the medium was added to each well. After the cells were cultured for 4 h, the medium was discarded, 150 μL of DMSO solution was added to each well, and shaking was performed at a low speed on the shaker for 10 min in the dark. After the crystals were fully dissolved, the absorbance (A) of each well was detected at 490 nm with the microplate reader. Cell proliferation inhibition rate=[(control group A450-blank group A450)−(experimental group A450−blank group A450)/(control group A450−blank group A450)]×100%.

HepG2 liver cancer cells = test: Cell proliferation by MTT method, HepG2; type: cell-based; conditions: HepG2, 10, 25, 50, 100 nM, 24 h, FIG. 9
Experimental: as §3, §4

Hep3B liver cancer cells [3] = test: Cell proliferation by MTT method, Hep3B; type: cell-based; conditions: Hep3B, 10, 25, 50, 100 nM, 24 h, FIG. 9
Experimental: as §3, §4

Hep3B liver cancer cells [4] = test: Cell apoptosis by flow cytometry, Hep3B; type: cell-based; conditions: Hep3B, 0, 50 and 100 nM, 24 h, FIG. 10 A
Experimental: as §1, §2

[5] = tested on: SMMC-7721 liver cancer cells; test: Cell proliferation by MTT method, SMMC-7721; type: cell-based; conditions: SMMC-7721, 10, 25, 50, 100 nM, 24 h, FIG. 9
Experimental: as §3, §4

LO2 cells = test: Cell toxicity experiment (LDH activity of culture supernatant); type: cell-based; conditions: normal liver cells, 0, 10, 50 and 100 nM, 24 h; FIG. 8
Experimental: 2.1 Cell Toxicity Experiment
Logarithmically growing LO2 cells were taken and inoculated in a 96-well plate at 1×10^4 cells per well. The cells treated with drugs with final concentrations of 0, 10, 50 and 100 nM were used respectively, the culture supernatant was collected after 24 h, and the LDH activity of the culture supernatant was detected by the Roche biochemical analyzer.

Caspase-3 [6] = test: Apoptosis-related proteins by western blot, Caspase-3 in BEL-7402 cells; type: cell-based; conditions: BEL-7402 cells, 0, 50 and 100 nM, 24 h, FIG. 10 B
Experimental: (§5) 2.4 Detection of Apoptosis-Related Proteins by Western Blot
(§6) BEL-7402 cells in the logarithmic growth phase were taken and inoculated in a 12-well plate at 5×10^5 cells per well. The cells treated with TPO with final concentrations of 0, 50 and 100 nM were used. After 24 h of treatment, the cells were collected, then lysate was added, and total proteins were extracted after sufficient lysis on ice. After the protein concentration was measured by a BCA method, the Loading buffer was added and boiled at 100° C. for 10 min to fully denature the proteins. The denatured sample was subjected to SDS-PAGE gel electrophoresis and electrically transferred to a PVDF membrane. The transferred PVDF membrane was sealed with a 5% BSA solution in TBST at a room temperature for 1 h, then incubated overnight with the corresponding primary antibody at 4° C., washed with TBST, incubated with the secondary antibody at a room temperature for 2 h, and washed with TBST again.
(§7) Finally, an ECL chemiluminescent solution was added to make the membrane strip emit light, electrophoresis results were obtained by pressing, developing and fixing with photosensitive films, and the change trends of apoptosis-related proteins among different treatment groups were observed.

[7] = tested on: HepG2 subcutaneous implanted tumor (HepG2-Luc); test: Inhibition experiment on HepG2 subcutaneous implanted tumor in nude mice; type: in vivo
Experimental: 2.1 Establishment of Animal Models
Establishment of HepG2-Luc cell line stably expressing luciferase: HepG2 cells in the logarithmic growth phase were taken and placed into a 24-well plate at 1×10^5/well, and cultured overnight to make the cells fully adherent. An original medium was replaced with 2 mL of fresh medium containing 6 μg/mL polybrene, about 1×10^5 transfection units of recombinant lentiviral particles stably expressing luciferase were added, and after incubation was performed for 4 h at 37° C., 2 mL of fresh medium was added to dilute the polybrene. The culture was continued, and a virus-containing medium was replaced with a fresh medium. The culture was continued, a medium containing puromycin was replaced for resistance screening, drug-resistant clones were picked and screened for two weeks, and finally, a cell line HepG2-Luc stably expressing luciferase was obtained.
Construction of bear mice by HepG2-Luc cell line: the cryopreserved HepG2-Luc cells were recovered to a 100 cm^2 culture flask, cultured in vitro to the logarithmic growth phase and digested with 0.25% trypsin containing EDTA, the cells were collected and centrifuged at 1000 rpm for 3 min at a room temperature, the supernatant was discarded, the cells were washed with a serum-free DMEM medium, and the cell viability was detected by a trypan blue exclusion assay (only if the proportion of viable cells exceeded 95%, the experimental requirements were met). A small amount of the serum-free DMEM medium was added to resuspend the cells, and the cells were counted. […]
Detection of tumor growth by animal in-vivo imaging system: each nude mouse was intraperitoneally injected with 150 μL of 30 mg/kg […] substrate and observed for 15 min, the nude mouse was anesthetized with diethyl ether in an induction box for 5 min, the anesthetized nude mouse was quickly transferred into an observation box, the head of the nude mouse was aligned and fixed in a conical nasal plug, parameters were set for fluorescence imaging (if there was tumor growth, fluorescence signals with different intensities can be detected at the corresponding positions), after the imaging, the nude mouse was transferred into the induction box again, and an oxygen valve was turned on to revive the nude mouse.
18 random numbers were generated by Excel software, the random numbers were corresponding to the numbers of the nude mice, and the nude mice were equally divided into model groups according to the size of the random numbers, namely a low-dose group (100 μg/kg), a middle-dose group (200 μg/kg) and a high-dose group (400 μg/kg). After random grouping, the nude mice were weighed and the tumor volume was measured. […]

caspase-3 [8] = test: Western blot of tumor tissue, caspase-3; type: in vivo, nude mice; conditions: FIG. 7
Experimental: (§8) After the tumor tissue was thawed on ice, 50 mg of tumor tissue was taken into a tissue homogenization tube, and 500 μL of tissue lysate containing protease inhibitors and phosphatase inhibitors was added (usage of Roche brand tablets: 1 tablet/10 mL). After high-speed homogenization, centrifugation was performed at 12,000 rpm/min for 15 min, the supernatant was taken, and the protein concentration of the sample was measured by a BCA method. After the concentration of each sample was adjusted to the same, a protein loading buffer (5× Loading buffer) was added, denaturation was performed at 100° C. for 10 min, and preservation was performed at −80° C.
(§9) An appropriate brand of 10% pre-mixed polyacrylamide gel preparation solution was selected, and then, the gel (including separating gel and stacking gel) used in the experiment was prepared according to the instructions for use, which takes about 2 h. In the process of waiting for gel solidification, an SDS-PAGE gel electrophoresis solution was prepared in advance, the prepared gel was put in an electrophoresis tank, then the electrophoresis solution was added, and 10-30 μL of sample was added to each well of loading slot. After the sample runs through the stacking gel at a low pressure of 80 V, the voltage was adjusted to 100 V to make the sample run through the entire block of gel, so as to complete the SDS-PAGE gel electrophoresis operation. Secondly, a membrane transfer operation was performed (a PVDF membrane was pre-wetted in methanol for 5 min in advance), and membrane transfer conditions were: 300 mA, 120-150 min (corresponding to the time selection of the dividing line with a molecular weight of 100 kDa, wherein the selected membrane transfer time of the separated protein with a molecular weight less than 100 kDa was 120 min, and the selected membrane transfer time of the separated protein with a molecular weight greater than 100 kDa was 150 min). […] An ECL luminescent solution was used as a substrate to expose the target band, and the results were analyzed, recorded and counted.

p53 = test: Western blot of tumor tissue, p53; type: in vivo, nude mice; conditions: FIG. 7
Experimental: as §8, §9

PARP = test: Apoptosis-related proteins by western blot, PARP in BEL-7402 cells; type: cell-based; conditions: BEL-7402 cells, 0, 50 and 100 nM, 24 h, FIG. 10 B
Experimental: as §5, §6, §7

Huh7 cells = test: Scratch test; type: cell-based; conditions: 50 nM, 24 and 48 h, serum-free medium; P<0.05; FIG. 11
Experimental: Huh7 cells in the logarithmic growth phase were taken and inoculated in a 24-well plate at 5×10^5 cells per well. After the cells were overgrown, a sterile pipette tip was used for scratching, the cells were washed 3 times with PBS after scratching, the scratched cells were removed, a serum-free medium containing 50 nM TPO was added to continue the culture for 24 and 48 h, and photographing was performed. The scratch photo was analyzed by Image J software, the scratch distance was calculated, and the scratch healing was evaluated.

caspase-8 = test: Western blot of tumor tissue, caspase-8; type: in vivo, nude mice; conditions: FIG. 7
Experimental: as §8, §9

Molecule: triptolide triol [TP-3-OH, reference compound]
- proportion of Annexin V and PI positive cells (induction of apoptosis) [1]: not obvious
- inhibiting effect on proliferation [2]: no obvious inhibiting effect
- inhibiting effect on proliferation (HepG2 liver cancer cells): no obvious inhibiting effect
- inhibiting effect on proliferation (Hep3B liver cancer cells [3]): no obvious inhibiting effect
- proportion of Annexin V and PI positive cells (induction of apoptosis) (Hep3B liver cancer cells [4]): not obvious
- inhibiting effect on proliferation [5]: no obvious inhibiting effect
- LDH activity of the culture supernatant of LO2 cells (LO2 cells): significantly lower than that of the TPL treatment group

Molecule: C=CC(=O)O[C@@H]1[C@@]2(C(C)C)O[C@H]2[C@@H]2O[C@]23[C@]12O[C@H]2C[C@H]1C2=C(CC[C@@]13C)C(=O)OC2 [triptolide acrylate]
- cleavage of Caspase-3 (Caspase-3 [6]): significantly increased
- proportion of Annexin V and PI positive cells (induction of apoptosis) [1]: significantly increased
- inhibiting effect on proliferation [2]: significant inhibiting effect
- inhibiting effect on proliferation (HepG2 liver cancer cells): significant inhibiting effect
- tumor volume (subcutaneous implanted tumor seen on skin surface) ([7]; administration group (especially the high-dose group) vs model group, dose-dependent, FIG. 5): significantly less than that of the model group
- tumor volume of tumor tissues stripped after sacrifice ([7]; administration group vs model group, FIG. 6): less than that of the model group
- fluorescence signals in the tumors of the nude mice ([7]; each dose group (100, 200, 400 μg/kg), intraperitoneal injection once a day for 13 days, compared with the model group, dose-dependent, FIG. 4): significantly weakened
- fluorescence signal in the tumors of the nude mice ([7]; high-dose group (400 μg/kg), intraperitoneal injection once a day for 13 days, FIG. 4): weakened more obviously
- protein expression quantity of caspase-3 (caspase-3 [8]; high-dose group (400 μg/kg)): significantly increase
- protein expression quantity of caspase-3 (caspase-3 [8]; low-dose group (100 μg/kg)): reduce
- protein expression quantity of caspase-3 (caspase-3 [8]; middle-dose group (200 μg/kg)): significantly increase
- protein expression quantity of p53 (p53; high-dose group (400 μg/kg)): significantly increase
- protein expression quantity of p53 (p53; low-dose group (100 μg/kg)): no significant change
- protein expression quantity of p53 (p53; middle-dose group (200 μg/kg)): no significant change
- inhibiting effect on proliferation (Hep3B liver cancer cells [3]): significant inhibiting effect
- proportion of Annexin V and PI positive cells (induction of apoptosis) (Hep3B liver cancer cells [4]): significantly increased
- cleavage of PARP (PARP): significantly increased
- migration of Huh7 cells (scratch healing) (Huh7 cells): significantly inhibit
- inhibiting effect on proliferation [5]: significant inhibiting effect
- LDH activity of the culture supernatant of LO2 cells (LO2 cells): significantly lower than that of the TPL treatment group
- protein expression quantity of caspase-8 (caspase-8; high-dose group (400 μg/kg)): reduce
- protein expression quantity of caspase-8 (caspase-8; low-dose group (100 μg/kg)): reduce
- protein expression quantity of caspase-8 (caspase-8; middle-dose group (200 μg/kg)): significantly increase
